Data: patent publication EP1316317A1, “Hydrosoluble mixtures of cyproterone and/or an ester of it, processes to obtain them and uses thereof” (University of Liege, priority 2001, dated 2003)
Values joined by “and” are separate entries in the source; they are usually repeats but may differ in a detail not shown here. Equal values may be shown once.

What was measured:
[1] = Stability of CPA in aqueous solution, alone or as complex with βCD (HPLC); format: physicochemical
Description: Un complexe est formé par ajout de 2 ml de solution aqueuse de βCD 10 mM à 20 mg de CPA. Après agitation pendant 24 heures à 25°C, ces solutions sont filtrées sur filtre en PVDF de 0,45 µm (Millipore, Millex HV 0,45 µm). La formation du complexe est effectuée sur 8 échantillons différents.
Les solutions de référence de CPA sont préparées en ajoutant 2 ml de solution aqueuse à 20 mg de CPA. Après agitation pendant 24 heures à 25°C, ces solutions sont filtrées sur filtre en PVDF de 0,45 µm. 8 échantillons sont préparés.
(§1) Les échantillons sont conservés dans des conditions ambiantes (20°C) pendant 3 mois.
La concentration en CPA contenue dans les solutions de CPA seul ou sous forme de complexe est dosée par HPLC au temps 0, après 1 mois et après 3 mois.
L'appareillage et les conditions chromatographiques sont ceux tels qu'utilisés dans l'Exemple 3.

[2] = Adsorption of CPA on cellulose and PVDF filters (recovery after filtration); format: physicochemical; details: CPA 2 µg/ml (100 µg/ml diluted 50-fold), CD 10 mM
Description: Les complexes ont été préparés en diluant 50 fois une solution mère de CPA à 100 µg/ml dans un mélange eau/acétonitrile (ACN) 50/50, avec une solution aqueuse de cyclodextrine à 10 mM. Les différentes cyclodextrines utilisées sont la β-CD, la γCD, l'HPβCD, l'HPγCD et la RMβCD. Ces échantillons sont agités au vortex pendant au moins 1 minute. Etant donné la faible proportion de CPA par rapport à la concentration en cyclodextrine et le CPA étant déjà solubilisé dans le milieu, il n'est pas nécessaire d'agiter 24 heures à 25°C pour obtenir le complexe, ce dernier étant formé très rapidement.
Une solution de référence contenant seulement du CPA est préparée en diluant 50 fois la solution mère de CPA à 100 µg/ml dans un mélange eau/acétonitrile 50/50, avec de l'eau purifiée.
Chaque essai est répété à trois reprises. Ces échantillons sont ensuite filtrés en partie sur filtre en ester de cellulose et en partie sur filtre en PVDF. Les échantillons sont dosés avant et après filtration de façon à pouvoir calculer le pourcentage de récupération après filtration.

[3] = Stability of CPA in aqueous solution, alone or as complex with RMβCD (HPLC); format: physicochemical
Description: Les complexes sont formés par ajout de 2 ml de solution aqueuse de RMβCD à 30 mg de CPA. Des solutions de RMβCD à différentes concentrations ont été utilisées: 12,5; 25; 50; 100 et 200 mM. Après agitation pendant 24 heures à 25°C, ces solutions sont filtrées sur filtre en PVDF de 0,45 µm (Millipore, Millex HV 0,45 µm).
Les solutions de référence de CPA sont préparées en ajoutant 2 ml de solution aqueuse à 30 mg de CPA. Après agitation pendant 24 heures à 25°C, ces solutions sont filtrées sur filtre en PVDF de 0,45 µm (Millipore, Millex HV 0,45 µm).
as §1
La concentration en CPA contenu dans les solutions de CPA seul ou sous forme de complexe est dosée par HPLC au temps 0, après 1 mois et après 3 mois.
(§2) Les conditions chromatographiques sont telles qu'utilisées précédemment.

[4] = Stability of CPA in alkaline medium (stress conditions), alone or complexed with CDs (HPLC); format: physicochemical; details: CD 100 mM
Description: Les complexes sont préparés en ajoutant 2 ml de solution aqueuse de CD à 20 mg de CPA. Les solutions de CD utilisées pour préparer ces complexes sont des solutions de HPβCD, de HPγCD ou de RMβCD à une concentration de 100 mM. Après agitation pendant 24 heures à 25°C, ces solutions sont filtrées sur filtre en PVDF de 0,45 µm (Millipore, Millex HV 0,45 µm).
Les solutions de référence de CPA sont préparées en ajoutant 2 ml de solution aqueuse à 20 mg de CPA. Après agitation pendant 24 heures à 25°C, ces solutions sont filtrées sur filtre en PVDF de 0,45 µm (Millipore, Millex HV 0,45 µm).
Chaque essai est répété à 3 reprises et les échantillons sont conservés dans des étuves à température contrôlée à 25°C pendant 1 mois.
La concentration en CPA contenu dans les solutions de CPA seul ou sous forme de complexe est dosée par HPLC au temps 0 et après 1 mois et le pH des solutions est mesuré après 1 mois.
as §2
Après 1 mois, la libération de substances alcalines provenant des flacons a communiqué un pH alcalin aux solutions. Ce pH a été mesuré et varie entre 8 et 9 dans les différentes solutions. Ce pH alcalin a provoqué la dégradation de l'acétate de cyprotérone, par hydrolyse de la fonction ester.

[5] = Phase-solubility diagram of CPA in aqueous cyclodextrin solutions (excess CPA, HPLC assay of filtrate); format: physicochemical; details: for Concentration en CPA (Solubilité du CPA en présence de HPβCD) / Concentration en CPA (Solubilité du CPA en présence de HPγCD) / Concentration en CPA (Solubilité du CPA en présence de RMβCD) / Concentration en CPA (Solubilité du CPA en présence de SBEβCD) / Concentration en CPA (Solubilité du CPA en présence de βCD) / Concentration en CPA (Solubilité du CPA en présence de γCD): 24 h at 25°C
Description: Les diagrammes de solubilité sont effectués en ajoutant un excès de CPA à des solutions de CD de concentration croissante. Après 24 heures d'agitation dans des bains thermostatisés à 25°C, ces solutions sont filtrées et la quantité de CPA solubilisée est dosée par HPLC.
Pesée de minimum 30 mg de CPA et ajout de 2 ml de solution de CD. Pour chaque concentration de CD, les essais sont répétés au moins deux fois. Des essais sont également effectués avec une solution aqueuse sans CD.
Les échantillons sont mis en agitation dans des bains thermostatisés à 25°C pendant 24 heures. Ensuite, ces échantillons sont filtrés sur filtre en polyvinyldifluoridène (PVDF) de 0,45 µm (Millipore, Millex HV 0,45 µm) et la concentration de CPA dans les filtrats est dosée par HPLC.
• Echantillonneur automatique Merck L-7200, Détecteur UV Merck L-7400, Pompe Merck L-7100 et intégrateur Merck D-2500.
• Colonne : Lichrospher RP18 (5 µm) 125 mm • Phase mobile : ACN/H2O 50/50 • Débit : 1,5 ml/min • Température : 25°C • Longueur d'onde : 282 nm • Etalon interne : propylparaben.

[6] = water; background statement, no method given; cited from earlier work
[7] = CPA concentration at time 0, 1440 min

CPA retrouvé après 1 mois, Conc. ([1]; after 1 month at ambient conditions (20°C)): 2,2 µg/ml
CPA retrouvé après 1 mois, Pourcentage moyen CPA ([1]; after 1 month at ambient conditions (20°C), relative to time 0, 43800 min): 84,6%
CPA retrouvé après 3 mois, Conc. ([1]; after 3 months at ambient conditions (20°C)): 2,1 µg/ml
CPA retrouvé après 3 mois, Pourcentage moyen CPA ([1]; after 3 months at ambient conditions (20°C), relative to time 0, 131400 min): 79,3%
CPA au temps 0, Conc. ([1]; time 0, βCD 10 mM for the complex, n=8, 1440 min): 2,6 µg/ml
Pourcentage de CPA récupéré après filtration sur PVDF, Moyenne ([2]; PVDF filter): 88,7%
Pourcentage de CPA récupéré après filtration sur acétate de cellulose, Moyenne ([2]; cellulose filter): 2,9%
Conc. t1 ([3]; CPA concentration after 1 month at ambient conditions (20°C)): 2,2 µg/ml
Conc. t0 [3, 7]: 2,7 µg/ml
Pourcentage t1 mois ([3]; CPA remaining after 1 month at 20°C, 43800 min): 83,7%
Pourcentage t3 mois ([3]; CPA remaining after 3 months at 20°C, 131400 min): 77,1%
Conc. t1 mois ([4]; CPA concentration after 1 month at 25°C, alkaline pH 8 to 9): 0,4 µg/ml
Conc. t0 [4, 7]: 2,3 µg/ml
Pourcentage CPA après 1 mois ([4]; after 1 month at 25°C, alkaline pH 8 to 9, 43800 min): 17,6%
Concentration en CPA (Solubilité du CPA en présence de HPβCD) ([5]; HPβCD 25 mM): 308,0 µg/ml
Concentration en CPA (Solubilité du CPA en présence de HPβCD) ([5]; HPβCD 50 mM): 629,9 µg/ml
Concentration en CPA (Solubilité du CPA en présence de HPβCD) ([5]; HPβCD 100 mM): 1188,6 µg/ml
Concentration en CPA (Solubilité du CPA en présence de HPβCD) ([5]; HPβCD 200 mM): 2648,2 µg/ml
Concentration en CPA (Solubilité du CPA en présence de HPβCD) ([5]; HPβCD 12,5 mM): 147,1 µg/ml
Concentration en CPA (Solubilité du CPA en présence de HPγCD) ([5]; HPγCD 25 mM): 282,5 µg/ml
Concentration en CPA (Solubilité du CPA en présence de HPγCD) ([5]; HPγCD 50 mM): 578,9 µg/ml
Concentration en CPA (Solubilité du CPA en présence de HPγCD) ([5]; HPγCD 100 mM): 1512,0 µg/ml
Concentration en CPA (Solubilité du CPA en présence de HPγCD) ([5]; HPγCD 200 mM): 4291,1 µg/ml
Concentration en CPA (Solubilité du CPA en présence de HPγCD) ([5]; HPγCD 12,5 mM): 118,7 µg/ml
Concentration en CPA (Solubilité du CPA en présence de RMβCD) ([5]; RMβCD 25 mM): 430,9 µg/ml
Concentration en CPA (Solubilité du CPA en présence de RMβCD) ([5]; RMβCD 50 mM): 1169,9 µg/ml
Concentration en CPA (Solubilité du CPA en présence de RMβCD) ([5]; RMβCD 100 mM): 3222,1 µg/ml
Concentration en CPA (Solubilité du CPA en présence de RMβCD) ([5]; RMβCD 200 mM): 9598,7 µg/ml
Concentration en CPA (Solubilité du CPA en présence de RMβCD) ([5]; RMβCD 12,5 mM): 176,9 µg/ml
Concentration en CPA (Solubilité du CPA en présence de SBEβCD) ([5]; SBEβCD 25 mM): 461,8 µg/ml
Concentration en CPA (Solubilité du CPA en présence de SBEβCD) ([5]; SBEβCD 50 mM): 860,9 µg/ml
Concentration en CPA (Solubilité du CPA en présence de SBEβCD) ([5]; SBEβCD 100 mM): 1475,2 µg/ml
Concentration en CPA (Solubilité du CPA en présence de SBEβCD) ([5]; SBEβCD 200 mM): 2034,1 µg/ml
Concentration en CPA (Solubilité du CPA en présence de SBEβCD) ([5]; SBEβCD 12,5 mM): 243,9 µg/ml
solubilité du CPA sans cyclodextrine ([5]; water without cyclodextrin, 24 h agitation at 25°C, 1440 min): < 3 µg/ml and 2,6 µg/ml
Concentration en CPA (Solubilité du CPA en présence de βCD) ([5]; βCD 5 mM): 28,8 µg/ml
Concentration en CPA (Solubilité du CPA en présence de βCD) ([5]; βCD 10 mM): 56,7 µg/ml
Concentration en CPA (Solubilité du CPA en présence de βCD) ([5]; βCD 15 mM): 86,5 µg/ml
Concentration en CPA (Solubilité du CPA en présence de γCD) ([5]; γCD 25 mM): 436,6 µg/ml
Concentration en CPA (Solubilité du CPA en présence de γCD) ([5]; γCD 50 mM): 1041,0 µg/ml
Concentration en CPA (Solubilité du CPA en présence de γCD) ([5]; γCD 100 mM): 2368,9 µg/ml
Concentration en CPA (Solubilité du CPA en présence de γCD) ([5]; γCD 200 mM (so in the source)): 2266,8 µg/ml
Concentration en CPA (Solubilité du CPA en présence de γCD) ([5]; γCD 12,5 mM): 195,2 µg/ml
Substance: acétate de cyprotérone [CPA]
solubilité de l'acétate de cyprotérone dans l'eau [6]: ~2 µg/mL
